TGI data for eight compounds are collected here from PubChem BioAssay (NCI).

Some test systems named below: MOLT-4 leukemia; MDA-MB-231 breast; NCI-H460 lung; SK-OV-3 ovarian; SF-295 CNS; T-47D breast; A498 renal; HOP-92 NSCLC; SW-620 colon; HCC-2998 colon; HT29 colon; OVCAR-5 ovarian; SF-268 CNS; UO-31 renal; M14 melanoma; LOX IMVI melanoma; SNB-19 CNS; NCI-H522 lung; MDA-MB-435; TK-10 renal.
Experiment in all cases: growth of human tumour cells (NCI), 48 h

Structures are written as SMILES.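 Grown in 96-well plates, cells were treated for 48 hours with each compound at five concentrations. Insufficient inhibition: endpoint recorded as highest concentration tested. TGI marks complete inhibition of growth.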

Consider `Cc1ccc2c(=O)cc(-c3cccc4ccccc34)[nH]c2n1`, for which the TGI is more than 100 µM in the assay on MOLT-4 leukemia; more than 100 µM with MDA-MB-231 breast; more than 100 µM in the assay on NCI-H460 lung; 2.64 µM with SK-OV-3 ovarian; more than 100 µM with SF-295 CNS; more than 100 µM in the assay on T-47D breast. Moreover, the TGI with A498 renal was 0.0568 µM; with HOP-92 NSCLC, 32 µM; with SW-620 colon it was more than 100 µM; with HCC-2998 colon it was 0.177 µM; in the assay with HT29 colon, 0.0658 µM; with OVCAR-5 ovarian, more than 47.1 µM. The TGI in the assay with SF-268 CNS was more than 32.4 µM; with UO-31 renal, more than 55.4 µM; with M14 melanoma it was more than 100 µM; in the assay with LOX IMVI melanoma, 9.5 µM; in the assay on SNB-19 CNS, more than 100 µM.
Take `Cc1ccc(OCC2OC(C#N)C(Oc3ccc(C)cc3)C2Oc2ccc(C)cc2)cc1` (stereo not given): the TGI in the assay on MOLT-4 leukemia, in the assay on MDA-MB-231 breast, in the assay with NCI-H460 lung, in the assay with SK-OV-3 ovarian, with NCI-H522 lung and with SF-295 CNS was more than 100 µM each time. The TGI in the assay on T-47D breast, in the assay on A498 renal, with SW-620 colon, in the assay on HCC-2998 colon, in the assay on HT29 colon and with OVCAR-5 ovarian was more than 100 µM in each case. The TGI in the assay with MDA-MB-435, in the assay on SF-268 CNS, in the assay on UO-31 renal, in the assay with M14 melanoma and in the assay with SNB-19 CNS was more than 100 µM in each case.
Turning to `CCOC(=O)CC(=O)C(=O)NNC1=NCCCN1`, the TGI in the assay on MOLT-4 leukemia, with MDA-MB-231 breast, in the assay on NCI-H460 lung, in the assay with SK-OV-3 ovarian, with SF-295 CNS and in the assay with T-47D breast was more than 100 µM each time. Also, the TGI in the assay with TK-10 renal, in the assay with HOP-92 NSCLC, with SW-620 colon, in the assay with HCC-2998 colon, in the assay on HT29 colon and in the assay with OVCAR-5 ovarian was more than 100 µM in each case. Besides, the TGI with MDA-MB-435, with SF-268 CNS, with UO-31 renal, in the assay on M14 melanoma, with LOX IMVI melanoma and in the assay with SNB-19 CNS was more than 100 µM throughout.
Take `NCC#CCNCCCN1CC1`: the TGI in the assay on NCI-H460 lung, in the assay with SK-OV-3 ovarian, with NCI-H522 lung, with SF-295 CNS, in the assay with T-47D breast and in the assay with A498 renal was more than 100 µM in each case. Besides, the TGI in the assay on TK-10 renal, in the assay on HOP-92 NSCLC, in the assay with SW-620 colon, with HCC-2998 colon, in the assay with HT29 colon and with OVCAR-5 ovarian was more than 100 µM each time. For the same compound, the TGI in the assay with MDA-MB-435, in the assay on SF-268 CNS, in the assay on M14 melanoma, with LOX IMVI melanoma and with SNB-19 CNS was more than 100 µM each time.
For `O=C(O)C1(C(=O)O)CC1(C(=O)O)C(=O)O`, the TGI in the assay with MOLT-4 leukemia, in the assay on MDA-MB-231 breast, with NCI-H460 lung, with SK-OV-3 ovarian, in the assay with NCI-H522 lung and in the assay with SF-295 CNS was more than 100 µM each time. For the same compound, the TGI in the assay with T-47D breast, with TK-10 renal, with SW-620 colon, in the assay on HCC-2998 colon, in the assay with HT29 colon and in the assay on OVCAR-5 ovarian was more than 100 µM throughout. The TGI in the assay on SF-268 CNS, in the assay with UO-31 renal, with M14 melanoma, with LOX IMVI melanoma and in the assay with SNB-19 CNS was more than 100 µM throughout.
As to `CCOC(=O)n1[nH]c(=O)n(-c2ccccc2)c1=O`, the TGI in the assay with MOLT-4 leukemia, with MDA-MB-231 breast, in the assay with NCI-H460 lung, in the assay with SK-OV-3 ovarian, with SF-295 CNS and in the assay with T-47D breast was more than 100 µM each time. Moreover, the TGI in the assay with TK-10 renal, in the assay with SW-620 colon, with HCC-2998 colon, in the assay with HT29 colon, in the assay with OVCAR-5 ovarian and with MDA-MB-435 was more than 100 µM each time. Also, the TGI in the assay on SF-268 CNS, in the assay with UO-31 renal, in the assay on M14 melanoma, in the assay with LOX IMVI melanoma and in the assay with SNB-19 CNS was more than 100 µM throughout.
For the compound `CN(c1ccccc1)S(=O)(=O)c1ccccc1[N+](=O)[O-]`, the TGI in the assay on MOLT-4 leukemia, in the assay on MDA-MB-231 breast, with NCI-H460 lung, in the assay on SK-OV-3 ovarian, in the assay on NCI-H522 lung and with SF-295 CNS was more than 100 µM in each case. Also, the TGI with T-47D breast, with TK-10 renal, with SW-620 colon, with HCC-2998 colon, in the assay on HT29 colon and with OVCAR-5 ovarian was more than 100 µM throughout. Also, the TGI in the assay on MDA-MB-435, in the assay on SF-268 CNS, in the assay on UO-31 renal, in the assay with M14 melanoma, in the assay with LOX IMVI melanoma and with SNB-19 CNS was more than 100 µM each time.
On to `Oc1c2cc(Br)cc1CCc1cc(Br)cc(c1O)CC2`, for which the TGI in the assay with MOLT-4 leukemia was more than 100 µM; in the assay with MDA-MB-231 breast, 41.4 µM; with NCI-H460 lung it was 39.4 µM; with SK-OV-3 ovarian it was 76 µM; with NCI-H522 lung, 45.8 µM; in the assay on SF-295 CNS it was 52.5 µM. Moreover, the TGI in the assay with T-47D breast was more than 100 µM; in the assay with A498 renal, 73.8 µM; in the assay on TK-10 renal it was 89.9 µM; in the assay on SW-620 colon it was 70.5 µM; with HCC-2998 colon, 32.9 µM; in the assay with HT29 colon it was 35.9 µM. The TGI is 65 µM with OVCAR-5 ovarian; more than 100 µM in the assay with MDA-MB-435; more than 100 µM in the assay on SF-268 CNS; 66.6 µM in the assay on UO-31 renal; 36.7 µM in the assay with M14 melanoma; 31.3 µM in the assay on LOX IMVI melanoma. Further, the TGI in the assay with SNB-19 CNS is more than 100 µM.
